# Patent publication US6841684B2, “Imidiazoles having reduced side effects” (Allergan, Inc., priority 1997, dated 2005)
# Where two headings read alike, the source gives them in different places.
# Key:
# [1] = system: cynomolgus monkeys with sustained elevated IOP; assay: IOP lowering in conscious monkeys, eyes made hypertensive by argon laser photocoagulation; format: in vivo, cynomolgus monkey; conditions: Macaca fascicularis, topical, single 50 μl eye drop, up to 6 hours, read-out: Maximum % Decrease From Pretreatment Levels Hypertensive Eye (IOP); for inhibition in vivo at 0.1 %: ocular dose 0.1%; for inhibition in vivo at 0.3 %: ocular dose 0.3%; for inhibition in vivo at 1 %: ocular dose 1%
# Excerpt: Measurements of IOP were made in fully conscious female cynomolgus monkeys weighing 3-4 kg with sustained elevated IOP that was produced in the right eye by argon laser photocoagulation of the trabecular meshwork. Animals were usable for experiments 2 months following surgery. During the experiments, monkeys sat in specially designed chairs (Primate Products, San Francisco), and were fed orange juice and fruit as needed. A 30R model Digilab pneumatonometer (Alcon, Tex.) was used to measure IOP.
# Twenty five μl of an anesthetic (proparacaine) was topically applied to each monkey before IOP measurements to minimize ocular discomfort due to tonometry. Two baseline measurements were made prior to instillation of the drugs, followed by periodic measurements up to 6 hours post-instillation. The test compounds were administered unilaterally as a single 50 μl eye drop; the contralateral eyes received an equal volume of saline.
# [2] = system: conscious cynomolgus monkeys; assay: Sedation score during the IOP experiments; format: in vivo, cynomolgus monkey; design: key to Sedation (0-4): 0=alert, typical vocalization, movement, etc.; 1=calm, less movement; 2=slightly sedated, some vocalization, responsive to stimulation; 3=sedated, no vocalization, some response to stimulation; 4=asleep
# Protocol: At the same time, sedation was measured and assessed according to the following score: 0=alert, typical vocalization, movement, etc.; 1=calm, less movement; 2=slightly sedated, some vocalization, responsive to stimulation; 3=sedated, no vocalization, some response to stimulation; 4=asleep.
# [3] = biological target: T1, rat α2B (RNG gene) receptor (Rattus norvegicus, UniProt P19328); assay: RSAT (Receptor Selection and Amplification Technology) assay, alpha 2B; format: cell-based; conditions: ratio of maximal effect to that of standard full agonist oxymetazoline
# T1 construct: expressed in transfected cells; host or cells: NIH-3T3 cells, calcium phosphate cotransfection
# T1 sequence (P19328 1-453): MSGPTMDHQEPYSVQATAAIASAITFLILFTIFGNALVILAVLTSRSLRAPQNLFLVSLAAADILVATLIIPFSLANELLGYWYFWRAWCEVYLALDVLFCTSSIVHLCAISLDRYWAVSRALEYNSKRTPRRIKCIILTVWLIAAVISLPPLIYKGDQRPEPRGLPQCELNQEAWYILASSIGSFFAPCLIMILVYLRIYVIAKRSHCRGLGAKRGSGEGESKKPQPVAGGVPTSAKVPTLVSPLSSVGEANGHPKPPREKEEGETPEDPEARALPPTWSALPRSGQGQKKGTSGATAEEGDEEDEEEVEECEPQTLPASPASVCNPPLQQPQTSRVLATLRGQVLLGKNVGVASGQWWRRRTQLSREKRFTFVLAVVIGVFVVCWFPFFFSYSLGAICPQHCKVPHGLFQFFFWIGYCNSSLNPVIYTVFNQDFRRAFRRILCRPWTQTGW
# Excerpt: This preferential activity can be determined in a variety of functional assays such as Cyclic AMP Production, Shimizu et al, J. Neurochem. […] In the study below, the RSAT assay on cells that have been transiently transfected with the human α2A (c10 gene), rat α2B (RNG gene) and human α2C (c4 gene) receptors was used.
# The assay measures a receptor-mediated loss of contact inhibition that results in selective proliferation of receptor-containing cells in a mixed population of confluent cells. The increase in cell number is assessed with an appropriate transfected marker gene such as b-galactosidase, the activity of which can be easily measured in a 96-well format. Receptors that activate the G protein, Gq, elicit this response. Alpha2 receptors, which normally couple to Gi, activate the RSAT response when coexpressed with a hybrid Gq protein that has a Gi receptor recognition domain, called Gq/i5^2.
# NIH-3T3 cells are plated at a density of 2×10^6 cells in 15 cm dishes and maintained in Dulbecco's modified Eagle's medium supplemented with 10% calf serum. One day later, cells are cotransfected by calcium phosphate precipitation with mammalian expression plasmids encoding p-SV-b-galactosidase (5-10 mg), receptor (1-2 mg) and G protein (1-2 mg). 40 mg salmon sperm DNA may also be included in the transfection mixture. Fresh media is added on the following day and 1-2 days later, cells are harvested and frozen in 50 assay aliquots. Cells are thawed and 100 ml added to […] aliquots of various concentrations of drugs in triplicate in 96-well dishes. Incubations continue 72-96 hr at 37°. After washing with phosphate-buffered saline, b-galactosidase enzyme activity is determined by adding 200 ml of the chromogenic substrate (consisting of 3.5 mM o-nitrophenyl-b-D-galactopyranoside and 0.5% nonidet P-40 in phosphate buffered saline), incubating overnight at 30° and measuring optical density at 420 nm. The absorbence is a measure of enzyme activity, which depends on cell number and reflects a receptor-mediated cell proliferation. The EC50 and maximal effect of each drug at each alpha2 receptor is determined. The efficacy or intrinsic activity is calculated as a ratio of the maximal effect of the drug to the maximal effect of a standard full agonist for each receptor subtype.
# [4] = system: conscious cynomolgus monkeys; assay: Cardiovascular side effects (blood pressure, heart rate) after i.v. administration; format: in vivo, cynomolgus monkey; conditions: up to 6 hours, + with * = increase from base levels
# Excerpt: Cardiovascular measurements were made in a different group of monkeys using a BP 100S automated sphygmomanometer (Nippon Colin,. Japan).
SMILES,Sedation (0-4) ([2]; ocular dose 0.3%),Sedation (0-4) ([2]; ocular dose 1%),"Intrinsic Activity Relative to Oxymetazoline, Alpha 2B [3]","Maximum % Decrease From Pretreatment Levels, Heart Rate ([4]; i.v. 500 μg/kg)","Maximum % Decrease From Pretreatment Levels, Mean Arterial Blood Pressure ([4]; i.v. 500 μg/kg)",inhibition in vivo at 0.3 % [1] [%],inhibition in vivo at 1 % [1] [%],other results
"c1ccc2c(c1)CC(Cc1c[nH]cn1)CO2 (stereo not shown) [Example B-2d, 4(5)-chroman-3-ylmethyl-1H-imidazole]",0,0,0.6,+15.5 ± 3.4* %,+8.9 ± 3.4* %,–,–,inhibition in vivo at 0.1 % ([1]; 6 h): 22 ± 4.6%; inhibition in vivo at 0.3 % ([1]; 6 h): 17 ± 4.2%; inhibition in vivo at 1 % ([1]; 6 h): 18.1 ± 5.2%; Sedation (0-4) ([2]; ocular dose 0.1%): 0
"c1ccc2c(c1)CCC(Cc1c[nH]cn1)C2 (stereo not shown) [Example B-3b, 4(5)-(1,2,3,4-tetrahydronaphthalen-2-ylmethyl)-1H-imidazole]",0,–,0.7,–,–,–,–,"inhibition in vivo at 0.1 % ([1]; 6 h): 25.9 ± 3.5%; inhibition in vivo at 0.3 % ([1]; 6 h): 31.2 ± 4.3%; Sedation (0-4) ([2]; ocular dose 0.1%): 0; Maximum % Decrease From Pretreatment Levels, Heart Rate ([4]; i.v. 50 μg/kg): 10.0 ± 2.8%; Maximum % Decrease From Pretreatment Levels, Mean Arterial Blood Pressure ([4]; i.v. 50 μg/kg): 2.4 ± 4.3%"
"Cl.c1ccc2c(c1)CC(Cc1c[nH]cn1)CS2 (stereo not shown) [Example B-6, 4(5)-thiochrom-3-ylmethyl-1H-imidazole, hydrogen chloride salt]",0,0,0.35,–,–,–,–,inhibition in vivo at 0.3 % ([1]; 6 h): 13.8 ± 2.4%; inhibition in vivo at 1 % ([1]; 6 h): 22.1 ± 6.3%
"c1nc(CC2CCc3sccc3C2)c[nH]1 (stereo not shown) [Example B-9a, 4(5)-(4,5,6,7-tetrahydrobenzo[b]thiophen-5-ylmethyl)-1H-imidazole]",0,0,0.46,+23.8 ± 4.4* %,+10.8 ± 3.2* %,24.8 ± 3.3,26.8 ± 5.4,inhibition in vivo at 0.03 % ([1]; ocular dose 0.03%): 17.6 ± 1.7%; inhibition in vivo at 0.1 % [1]: 26.7 ± 6.1%; Sedation (0-4) ([2]; ocular dose 0.03%): 0; Sedation (0-4) ([2]; ocular dose 0.1%): 0
"c1nc(Cc2ccsc2)c[nH]1 [Example C-1, 4(5)-thiophen-3-ylmethyl-1H-imidazole]",–,0,0.83,+11 ± 9* %,+5 ± 8* %,–,25 ± 4,"inhibition in vivo at 3 % ([1]; ocular dose 3%): 29 ± 4%; Sedation (0-4) ([2]; ocular dose 3%): 0; Maximum % Decrease From Pretreatment Levels, Heart Rate ([4]; i.v. 50 μg/kg): 12 ± 4%; Maximum % Decrease From Pretreatment Levels, Mean Arterial Blood Pressure ([4]; i.v. 50 μg/kg): 12.8 ± 12%"
"c1csc(Cc2c[nH]cn2)c1 [Example C-2, 4(5)-thiophen-2-ylmethyl-1H-imidazole]",–,0,1.3,6.5 ± 2.9%,6.6 ± 1.7%,–,29.6 ± 5.5,–
"Cc1ccc(Cc2c[nH]cn2)s1 [Example C-3, 4(5)-(5-methylthiophen-2-ylmethyl)-1H-imidazole]",0,0,0.88,10.6 ± 3.4%,2.3 ± 2.7%,20.6 ± 4.8,25 ± 6.4,–
"Clc1ccc(Cc2c[nH]cn2)s1 [Example C-4, 4(5)-(5-chlorothiophen-2-ylmethyl)-1H-imidazole]",0,0,0.82,10.9 ± 3.6%,5.3 ± 2.9%,17.7 ± 4,29.3 ± 4.9,–
"Cc1ccc(Cc2c[nH]cn2)o1 [Example C-7, 4(5)-(5-methylfuran-2-ylmethyl)-1H-imidazole]",–,0,0.73,6.1 ± 3.7%,3.0 ± 3.9%,–,–,inhibition in vivo at 1 % ([1]; 6 h): 32.3 ± 5.7%
"c1ccc(Cc2c[nH]cn2)cc1 [Example C-8, 4(5)-benzyl-1H-imidazole]",–,0,0.9,16.6 ± 1.9%,5.5 ± 2.7%,–,31.2 ± 3.3,–
"c1ccc2sc(Cc3c[nH]cn3)cc2c1 [Example C-9, 4(5)-benzo[b]thiophen-2-ylmethyl-1H-imidazole]",0,0,0.88,5.9 ± 3.3%,6.0 ± 2.2%,13.7 ± 4.5,25.1 ± 4.9,"Maximum % Decrease From Pretreatment Levels, Heart Rate ([4]; i.v. 3.0 μg/kg): 9.4 ± 3.0%; Maximum % Decrease From Pretreatment Levels, Mean Arterial Blood Pressure ([4]; i.v. 3.0 μg/kg): 5.0 ± 2.3%; Maximum % Decrease From Pretreatment Levels, Heart Rate ([4]; i.v. 17 μg/kg): +9.4 ± 1.8* %; Maximum % Decrease From Pretreatment Levels, Mean Arterial Blood Pressure ([4]; i.v. 17 μg/kg): 1.0 ± 4.1%; Maximum % Decrease From Pretreatment Levels, Heart Rate ([4]; i.v. 50 μg/kg): 16 ± 3.2%; Maximum % Decrease From Pretreatment Levels, Mean Arterial Blood Pressure ([4]; i.v. 50 μg/kg): 0.1 ± 3.8%"
"c1ccc(C2C3CCC(C3)C2/N=C2/NCCO2)cc1 [Example D-1, oxazolidin-2-ylidene-(3-phenylbicyclo[2.2.1]hept-2-yl) amine]",–,0,0.47,–,–,–,25.6 ± 3.9,–
"c1ccc2c(c1)CC[C@@H](Cc1c[nH]cn1)C2 [Example J-3, (R)-4(5)-(1,2,3,4-tetrahydronaphthalen-2-ylmethyl)-1H-imidazole]",0,–,1,+10.6 ± 6.0* %,+1.0 ± 2.1* %,–,–,Sedation (0-4) ([2]; ocular dose 0.03%): 0
